Measurements published in publication PMC10731658 (Chemical Research in Toxicology, 2023).
pIC50: −log10 of the molar value.

What was measured:
[1] = reference not given; cited from earlier work
HepG2 cells [2] = test: Intracellular RONS detection with DCFH-DA fluorescent probe; type: cell-based, human; details: IC50 concentration
Protocol: Two different fluorescent dyes, i.e., 2,7-dichlorodihydrofluorescein diacetate (DCFH-DA, Cayman Chemicals Company, Ann Arbor, MI) and dihydroethidium (DHE, Sigma-Aldrich, St. Louis, MO) were utilized for the determination of intracellular levels of RONS after 1, 4, and 24 h of incubation with tested oxime reactivators or TBHP (positive control). Cells incubated with oxime-free DMEM represented untreated control. After the incubation, the experimental medium was removed and replaced with a solution of DCFH-DA or DHE at concentrations of 20 and 5 μmol/L, respectively. The cells were subsequently incubated at 37 °C in a CO2 incubator for 45 min. Afterward, the fluorescence intensity of each well was measured using a Spark multimode microplate reader at an excitation wavelength of 485 nm for DCFH-DA or 528 nm for the DHE probe and an emission wavelength of 535 or 590 nm, respectively. Each experiment was carried out in triplicate and repeated three independent times.
The toxicological indices IC50 were calculated from control-subtracted triplicates using nonlinear regression (four parameters) using GraphPad Prism 9 software version 9.3.0 (GraphPad Software Inc., San Diego, CA). One-way analysis of variance (ANOVA) followed by Dunnetʼs multiple comparison test was used for RONS, MDA, NP-SH, and NP-SS-NP statistical analysis by GraphPad Prism 9 software, version 9.3.0. Data are expressed as means ± standard deviation (SD) of three independent measurements (n = 3). Significant differences between oxime-treated and untreated control groups (p ≤ 0.05) were marked by an asterisk (*).

AChE = details: in rat blood; read-out: IC50 (concentration required to inhibit AChE activity by 50%); cited from earlier work
HepG2 cells [3] = test: Flow cytometric detection of cell death (Annexin V & Dead Cell Assay); type: cell-based, human; details: IC50 concentration
Source text: 2. Flow cytometric detection of cell death
The microcapillary flow cytometry (Muse™ Cell Analyzer, Luminex, Austin, TX) was used to determine cell death.
This method is based on detecting externalization of phosphatidylserine on the surface of cells undergoing apoptosis.
The technique allows quantitative analysis of non-apoptotic, early apoptotic, late apoptotic, and necrotic cells. The reagent mixture also contains the membrane non-permeable dye 7-aminoactinomycin D. This component distinguishes necrotic and late apoptotic cells from the live and early apoptotic cells. The measurement of cell death was carried out according to manufacturer instructions after 1, 4, and 24 h incubation with tested oxime reactivators and with oxime-free medium as an untreated control. During the first day of the experiment, cells were seeded into a 24-well plate (TPP) with a density of […]. After the incubation, cells from each well were collected into the polystyrene tube (TPP) and centrifuged for 5 min at 1000 × g at room temperature. The supernatant was discarded. The cell suspensions […]
were prepared in fresh medium DMEM. Afterward 100 μL of cell suspension were mixed with the 100 μL of Muse™ Annexin V & Dead Cell Assay reagent, and the samples were incubated for 20 min at room temperature in the dark.
Per measurement, 5000 cells were analyzed. Each experiment was performed in triplicates and repeated three independent times. The concentration of K048, K074, K075, and K203 oximes and TBHP (positive control) used in […]
After 1 h of incubation (Figure S-1.) with tested oxime reactivators and TBHP as the positive control, the percentage […]
A significant change in the percentage of
The amount of early apoptotic cells
. On the other hand, the percentage of late apoptotic cells was […]
control cells. The count of late apoptotic cells enlarged by 7.74, 4.71 , 4.17, 4.13, and 3.20 %, respectively. The statistical differences were also found in the percentage of necrotic cells in this time interval. The highest increment […]
K048, K074, K075, and K203 groups when compared with control.
K075, and K203 treated groups, respectively, when compared with control. Finally, the percentage of necrotic cells […]
Fig. S-1 The percentage of intact (white column), early (light grey column), late apoptotic (dark grey column), and necrotic HepG2 cells (black column) determined using microcapillary flow cytometry after 1 h, 4 h and 24 h treatment with oxime acetylcholinesterase reactivators or TBHP (positive control). Control represents the cells incubated with an oxime-free culture medium. One-way analysis of variance (ANOVA) followed by Dunnetʼs multiple comparison test was used for statistical analysis by GraphPad Prism 9 software version 9.3.0. Data are expressed as means ± standard deviation (SD) of three independent measurements (n = 3). Significant differences between oxime-treated and untreated control groups (p ≤ 0.05) and marked by asterisk (*).
3. Stability of oximes in DMEM medium at 37 °C over 24 hours
The stability of oximes K048, K074, K075, and K203 in DMEM medium, with concentrations corresponding to their […]
UV, following the chromatographic conditions described by Vanova et al. (2021)13. The results over the tested time […]
Fig. S-2 Data are expressed in percentage as means ± standard deviation (SD) of three independent measurements […]

Compound | log P [1] | increase of RONS (DCFH-DA probe) vs negative control (HepG2 cells [2]; 1 h incubation) | increase of RONS (DCFH-DA probe) vs negative control (HepG2 cells [2]; 4 h incubation) | increase of RONS (DCFH-DA probe) vs negative control (HepG2 cells [2]; 24 h incubation) | pIC50 (AChE) | decrease in percentage of intact (live) cells vs control (HepG2 cells [3]; 1 h) | increase in early apoptotic cells vs control (HepG2 cells [3]; 1 h) | increase in late apoptotic cells vs control (HepG2 cells [3]; 1 h) | increase in necrotic cells vs control (HepG2 cells [3]; 1 h) | decrease in percentage of live cells vs control (HepG2 cells [3]; 4 h) | increase in early apoptotic cells vs control (HepG2 cells [3]; 4 h) | increase in late apoptotic cells vs control (HepG2 cells [3]; 4 h) | increase in necrotic cell population vs control (HepG2 cells [3]; 4 h) | decrease in percentage of intact cells vs control (HepG2 cells [3]; 24 h) | increase in early apoptotic cells vs control (HepG2 cells [3]; 24 h) | increase in late apoptotic cells vs control (HepG2 cells [3]; 24 h)
O/N=C/c1cc[n+](CCCC[n+]2ccc(/C=N/O)cc2)cc1 [K074, 1,1′-(butane-1,4-diyl)bis(4((hydroxyimino)methyl)pyridine-1-ium) dibromide] | −1.74 | 171% | 244% | 117% | ~4.18 | ~8.85% | ~2.45% | 4.71% | 1.69% | 8.3% | 4.17% | 3.47% | 0.67% | 45.5% | 14.1% | 31.3%
NC(=O)c1cc[n+](CCCC[n+]2ccc(C=NO)cc2)cc1.[Br-].[Br-] [K048, 4-carbamoyl-1-(4-(4-((hydroxyimino)methyl)pyridin-1-ium-1-yl)butyl)pyridin-1-ium dibromide] | −2.61 | 146% | 193% | 115% | ~3.19 | ~9.71% | about 5.05% | 4.17% |  | 11.2% | 5.72% | 4.35% | 1.17% | 45.6% | 18.2% | 26.2%
